From US20030021782A1, “Chlamydia infection” (priority 2001, published 2003)

Test system: C. pneumoniae strain AR-39 in HMEC-1 cells
Experiment: Assay for growth (infectivity) enhancing activity: C. pneumoniae inclusion counts in HMEC-1 cell culture
Assay type: cell-based
Conditions: for enhancement of growth of C. pneumoniae strain AR-39 in HMEC-1 cells: added to culture medium at 1, 5 and 10 ng/mL, 3 days incubation
Description: To assay for growth enhancing activity, conditioned medium, fractions of conditioned medium, insulin-like growth factor-1 (IGF-1) and IGF-2 were tested in HMEC-1 cell culture for enhanced susceptibility to C. pneumoniae. HMEC-1 cells were trypsinized from stock cultures and plated to achieve a cell monolayer in 24 h in 24-well culture plates. A 12 mm diameter glass coverslip was placed in each well for growing cells for ease of staining for microscopic observation and counting inclusions for assaying titers. For inoculation of cell culture, the culture fluid was removed and the cell monolayer washed three times with Hank's balanced salt solution. Two-tenth mL of inoculum were added per well and the plate was centrifuged for 1 h at 700 to 800× g at 25° C. After centrifugation, the inocula were removed, 1 mL of specified culture medium was added, and the plates were incubated in a CO2 incubator at 35° C. for 3 days. After incubation, coverslips were removed, fixed with methanol and stained with a Chlamydia genus-specific monoclonal antibody conjugated with fluorescein isothiocyanate. Inclusions were counted in 30 random fields at ×400 magnification. The infectivity titers were expressed as inclusion forming units (ifus) per milliliter, which had been adjusted for dilution factor and inoculum size (Furness et al., J. Gen Micro. 23:213-9, 1960). Triplicate coverslips were counted in each experiment. Experiments were repeated 2 or 3 times.
Characterization of Chlamydial growth enhancing factors was carried out as follows. Conditioned medium of a one day old culture of U937 cells in RPMI supplemented with 2% fetal calf serum was used. Conditioned medium was heated at 70° C. for 2 h and tested for growth enhancing activity against AR-39 in HMEC-1 cells. An equal volume of conditioned medium was mixed with fresh endothelial basal medium containing 2% fetal calf serum for culturing infected HMEC-1 cells.
For determining molecular size, one day old conditioned medium of U937 cells cultured in serum-free macrophage culture medium was fractionated into molecular weight ranges of larger than 30,000, 30,000 to 10,000, 10,000 to 5,000 and smaller than 5,000 using three different pore size filters, Biomax-30, Biomax-10 and Biomax-5 ultrafilters (Millipore, Bedford, Mass.) with the molecular weight cut-off of 30,000; 10,000; and 5,000, respectively. For size fractionation, a starting volume of 200 mL of conditioned medium was used. Each fraction was concentrated to 2 mL (a 100× concentration). The remaining filtrate which had been passed through the 5,000 molecular weight pore size filter also was saved for testing. That fraction and the starting conditioned medium were tested without concentration. […]

Q: With insulin-like growth factor-1 [IGF-1] as the substance, how does the “enhancement of growth of C. pneumoniae strain AR-39 in HMEC-1 cells” value read?
A: The value was “not”.

Q: What does the source list for insulin-like growth factor-2 [IGF-2]?
A: enhancing activity (increase) (0.5 ng/mL, p<0.05, N=3): 35%; enhancing activity (increase) (5 ng/mL, p<0.001): 256%; enhancement of growth of C. pneumoniae strain AR-39 in HMEC-1 cells: enhanced the growth
